Laboratory results published in patent US20180312511A1, “SHORT-ACTING BENZODIAZEPINE DERIVATIVES, PREPARATION METHOD THEREFOR, AND USE THEREOF” (SICHUAN KELUN-BIOTECH BIOPHARMACEUTICAL CO., LTD., priority 2015, published 2018).

How the values were obtained:
[1] = tested on: Rhesus monkeys; assay: Anesthetic effects in monkeys (loss of consciousness); format: in vivo; details: intravenous single bolus
From the text: (§1) In anesthetic activity tests, latency generally refers to the period between the start of administration of a drug to a subject and the moment that the subject becomes unconscious. A short latency is desirable, since it represents fast onset of the drug.
(§2) The duration of anesthesia generally refers to the period between the moment that a subject becomes unconscious and the moment that the subject regains consciousness. The durations will be different for different animal models or animal species. An over-long duration of anesthesia may result in adverse suppressive effects on the cardiovascular and respiratory systems, such as side effects on the nervous system, including drowsiness, dizziness, etc.; at the same time, an over-short duration of anesthesia may affect the anesthetic effect, causing dose increase of anesthetic during surgery and other issues.
Rhesus monkeys (male, 5-6 kg) were randomly divided into several groups. After administering the drugs intravenously in a single bolus, the latency to and the duration of loss of consciousness were recorded.

[2] = tested on: GABA Cl− current, HEK293T cells; assay: Cellular GABA activation current via whole-cell patch clamp; format: cell-based; details: Homo sapiens, HEK-293T, with 1 μM GABA, holding potential −60 mV; for Emax at 30 µM: concentration 30 μM; for EC50: read-out: EC50 (concentration at half of Emax); for Emax at 10 µM: concentration 10 μM
Protocol: Test compounds were dissolved in external solution (NaCl 140 mM, KCl 4.7 mM, HEPES 10 mM. CaCl2 2 mM, glucose 11 mM, and MgCl2 1 mM, pH 7.4) at various concentrations. HEK293T cells were plated on glass cover slips, and incubated in DMEM medium at 37° C. and 5% CO2 for 24 h.
An HEKA EPC 10 USB patch clamp amplifier was used in the whole-cell recording of GABA Cl^− current. 1 μM GABA was used to excite Cl^− current. Cells were voltage clamped at a holding potential of −60 mV, and treated with the test compounds of different concentrations together with 1 μM of GABA. The Cl^− current induction effect of the test compounds on the same cell, the maximum percentage of current potentiation (Emax), and the concentration of test compounds at half of Emax (EC50) were recorded.

[3] = tested on: Kunming mice; assay: Drug-induced loss of righting reflex in mice; format: in vivo; details: 60 mg/kg, single bolus via tail vein
From the text: as §1, §2
Kunming mice (male, 18-25 g) were randomly divided into several groups. After administering the drugs in a single bolus via the tail vein, the latency to loss of righting reflex and the duration of loss of righting reflex were recorded.

[4] = read-out: Emax (maximum percentage of current potentiation)

Row | Compound | Latency to loss of consciousness ([1]; 6 mg/kg) [min] | Duration of loss of consciousness ([1]; 8 mg/kg) [min] | Latency to loss of righting reflex [3] [min] | EC50 [2] [nM] | Duration of loss of righting reflex [3] [min] | also measured
1 | COC(=O)CC[C@@H]1N=C(c2ccccn2)c2cc(Br)ccc2-n2ccnc21 [Example 2, (S)-methyl 3-(8-bromo-6-(pyridin-2-yl)-4H-benzo[f]imidazo[1,2-a][1,4]diazepin-4-yl)propanoate] | 3.92 | 55.90 | 0.13 | – | – | Duration of loss of consciousness ([1]; 6 mg/kg): 18.10 min; Emax at 30 µM [2, 4]: 358%
2 | COC(=O)CC[C@@H]1N=C(c2ccccc2)c2cc(Cl)ccc2-n2cnnc21 [Example 3, (S)-methyl 3-(8-chloro-6-phenyl-4H-benzo[f][1,2,4]triazolo[4,3-a][1,4]diazepin-4-yl)propanoate] | – | – | – | 950 | 11.76 | Emax at 30 µM [2, 4]: 325%
3 | COC(=O)CC[C@@H]1N=C(c2ccccn2)c2cc(Br)ccc2-n2c(C)nnc21 [Example 4, (S)-methyl 3-(8-bromo-1-methyl-6-(pyridin-2-yl)-4H-benzo[f][1,2,4]triazolo[4,3-a][1,4]diazepin-4-yl)propanoate] | – | 45.00 | – | 980 | 19.14 | Emax at 30 µM [2, 4]: 472%
4 | COC(=O)CC[C@@H]1N=C(c2ccccn2)c2cc(Br)ccc2-n2c(C3CC3)cnc21 [Example 5, (S)-methyl 3-(8-bromo-1-cyclopropyl-6-(pyridin-2-yl)-4H-benzo[f]imidazo[1,2-a][1,4]diazepin-4-yl)propanoate] | – | – | – | 360 | 23.33 | Emax at 10 µM [2, 4]: 160%
5 | [2H]Cc1cnc2n1-c1ccc(Br)cc1C(c1ccccn1)=N[C@H]2CCC(=O)OC [Example 6, (S)-methyl 3-(8-bromo-1-deuteromethyl-6-(pyridin-2-yl)-4H-benzo[f]imidazo[1,2-a][1,4]diazepin-4-yl)propanoate] | – | – | 0.17 | – | 23.95 | –
6 | COC(=O)CC[C@@H]1N=C(c2ccccn2)c2cc(Br)ccc2-n2cnnc21 [Example 9, (S)-methyl 3-(8-bromo-6-(pyridin-2-yl)-4H-benzo[f][1,2,4]triazolo[4,3-a][1,4]diazepin-4-yl)propanoate] | – | 36.47 | – | 720 | 12.88 | Emax at 10 µM [2, 4]: 408%
7 | COCc1cnc2n1-c1ccc(Br)cc1C(c1ccccn1)=N[C@H]2CCC(=O)OC [Example 10, (S)-methyl 3-(8-bromo-1-(methoxymethyl)-6-(pyridin-2-yl)-4H-benzo[f]imidazo[1,2-a][1,4]diazepin-4-yl)propanoate] | 4.00 | 26.00 | – | 470 | 17.27 | Duration of loss of consciousness ([1]; 6 mg/kg): 26.00 min; Emax at 3 µM ([2]; concentration 3 μM, read-out: Emax (maximum percentage of current potentiation)): 197%
8 | [2H]Cc1nnc2n1-c1ccc(Br)cc1C(c1ccccn1)=N[C@H]2CCC(=O)OC [Example 11, (S)-methyl 3-(8-bromo-1-deuteromethyl-6-(pyridin-2-yl)-4H-benzo[f][1,2,4]triazolo[4,3-a][1,4]diazepin-4-yl)propanoate] | – | – | – | 400 | 12.82 | Emax at 30 µM [2, 4]: 319%
9 | CCc1cnc2n1-c1ccc(Br)cc1C(c1ccccn1)=N[C@H]2CCC(=O)OC [Example 15, (S)-methyl 3-(8-bromo-1-ethyl-6-(pyridin-2-yl)-4H-benzo[f]imidazo[1,2-a][1,4]diazepin-4-yl)propanoate] | 2.75 | – | 0.24 | – | – | Duration of loss of consciousness ([1]; 4 mg/kg): 37.50 min; Latency to loss of consciousness ([1]; 4 mg/kg): 3.75 min; Duration of loss of consciousness ([1]; 6 mg/kg): 49.00 min
10 | COC(=O)CC[C@@H]1N=C(c2ccccc2F)c2cc(Cl)ccc2-n2cnnc21 [Example 17, (S)-methyl 3-(8-chloro-6-(2-fluorophenyl)-4H-benzo[f][1,2,4]triazolo[4,3-a][1,4]diazepin-4-yl)propanoate] | – | 52.50 | – | – | 18.51 | –
11 | COC(=O)CC[C@@H]1N=C(c2ccccc2F)c2cc(Cl)ccc2-n2c(C3CC3)nnc21 [Example 18, (S)-methyl 3-(8-chloro-1-cyclopropyl-6-(2-fluorophenyl)-4H-benzo[f][1,2,4]triazolo[4,3-a][1,4]diazepin-4-yl)propanoate] | 5.09 | – | 0.19 | 470 | 25.61 | Duration of loss of consciousness ([1]; 1 mg/kg): 41.15 min; Latency to loss of consciousness ([1]; 1 mg/kg): 3.30 min; Latency to loss of consciousness ([1]; 4 mg/kg): 5.10 min; Emax at 10 µM [2, 4]: 347%
12 | COC(=O)CC[C@@H]1N=C(c2ccccn2)c2cc(Cl)ccc2-n2c(C3CC3)cnc21 [Example 21, (S)-methyl 3-(8-chloro-1-cyclopropyl-6-(pyridin-2-yl)-4H-benzo[f]imidazo[1,2-a][1,4]diazepin-4-yl)propanoate] | – | – | – | – | 23.23 | –
13 | COC(=O)CC[C@@H]1N=C(c2ccccn2)c2cc(Cl)ccc2-n2c(C3CCC3)cnc21 [Example 29, (S)-methyl 3-(8-chloro-1-cyclobutyl-6-(pyridin-2-yl)-4H-benzo[f]imidazo[1,2-a][1,4]diazepin-4-yl)propanoate] | – | – | 0.21 | – | 19.09 | –
14 | CCc1nnc2n1-c1ccc(Cl)cc1C(c1ccccn1)=N[C@H]2CCC(=O)OC [Example 30, (S)-methyl 3-(8-chloro-1-ethyl-6-(pyridin-2-yl)-4H-benzo[f][1,2,4]triazolo[4,3-a][1,4]diazepin-4-yl)propanoate] | – | – | 0.20 | – | 17.74 | –
15 | COC(=O)CC[C@@H]1N=C(c2ccccn2)c2cc(Cl)ccc2-n2c(C(C)C)nnc21 [Example 31, (S)-methyl 3-(8-chloro-1-isopropyl-6-(pyridin-2-yl)-4H-benzo[f][1,2,4]triazolo[4,3-a][1,4]diazepin-4-yl)propanoate] | – | – | 0.16 | – | 17.82 | –
16 | COC(=O)CC[C@@H]1N=C(c2ccccn2)c2cc(Br)ccc2-n2c(C)cnc21 [Remimazolam, reference compound] | 5.50 | – | 0.28 | – | – | Latency to loss of consciousness ([1]; 4 mg/kg): 5.34 min
